Experiments:
[1] = system: C26 murine colon carcinoma; experiment: Pharmacodynamics of doxorubicin liposomes in C26 tumor model; format: in vivo, nude mice
Experimental: For further studies pharmacodynamic experiments in a C26 murine colon carcinoma model were performed. For this purpose tumor cells were injected subcutaneously into nude mice. After tumors had reached a size of approximately 50-100 mm^3 tumor-bearing mice were treated with doxorubicin-loaded liposomes injecting a doxorubicin dose of 4 mg/kg body weight at days 1, 3 and 6.
In a first experiment AVE9-dox and AVE95-dox (see example 10) were compared to unencapsulated doxorubicin. In this experiment we observed reduced tumor growth and a prolonged survival time for animals treated with AVE95-dox compared to animals treated with AVE9-dox or free doxorubicin. […] The difference between free doxorubicin and AVE95-dox at day 12 was statistically significant (p = 0.05). This was also reflected by the mean survival time which was 20 days for AVE95-dox treated animals, 16 days for AVE9-dox treated animals, 14 days for doxorubicin-treated animals, and 12 days for untreated animals.
In a second experiment free doxorubicin was compared to AVE95-dox, when administered either at 4 or at 8 mg/kg body weight to C26-tumor-bearing mice. […] In contrast, tumor growth was further reduced using 8 mg/kg AVE95-dox compared to […] AVE95-dox.
In a third experiment AVE95-dox was compared to Doxil® for the treatment of C26 tumors applying a dose of 4 mg/kg.
In a final set of experiments, AVE95-dox liposomes were compared to a AVE95-based formulation containing varying sphingomyelin concentrations. Firstly, AVE95-dox was compared to the same formulation in which sphingomyelin was substituted by phosphatidylcholine (AVE95-0SM-dox). […] Secondly, AVE95-dox was compared to liposomes consisting of 50 mol% cholesterol, 30 mol% sphingomyelin and 20 mol% phosphatidylcholine. Thus, this formulation contained the same cholesterol concentration but approximately twice as much sphingomyelin as AVE95 liposomes.

[2] = Pharmacokinetics of doxorubicin in blood after i.v. injection (HPLC); format: in vivo; conditions: i.v. tail vein, nude mice, blood doxorubicin by HPLC
Experimental: AVE9-dox and AVE95-dox were injected i.v. into the tail veins of nude mice and blood concentration of doxorubicin was determined by HPLC at varying time points. In this experiment we included unencapsulated doxorubicin as well as doxorubicin encapsulated into pegylated "stealth liposomes" (Doxil®). Compared to AVE9-dox AVE95-dox caused a prolonged serum residence time of doxorubicin (50% value of 11 min for AVE9-dox versus 23 min for AVE95-dox). Unencapsulated dox was rapidly cleared from the circulation (50% value = < 3 min). In contrast, after injection of Doxil® more than 50% of initial doxorubicin was present in the blood after 6 hours (Fig. 4). […] Doxorubicin concentrations in the liver and spleen were increased 3-fold after applying AVE95-dox compared to free doxorubicin.

[3] = Pharmacokinetics and organ accumulation of mitoxantrone after i.v. injection (HPLC); format: in vivo; conditions: i.v. tail vein, nude mice, blood mitoxantrone by HPLC
Experimental: AVE95-MXR liposomes were injected i.v. into the tail veins of nude mice and blood concentration of mitoxantrone was determined by HPLC at varying time points. In this experiment we included unencapsulated mitoxantrone. AVE95-MXR caused a prolonged serum residence time of mitoxantrone (50% value = 110 min) compared to unencapsulated mitoxantrone which was rapidly cleared from circulation (50% value = < 3 min) (Fig. 8). […] Mitoxantrone concentrations in the liver and spleen were similar to free mitoxantrone.

[4] = system: C26 murine colon carcinoma; experiment: Pharmacodynamics of mitoxantrone liposomes in C26 tumor model; format: in vivo, nude mice; conditions: mitoxantrone dose of 4 mg/kg at days 0, 2 and 5
Experimental: Efficacy of AVE95-MRX was analyzed in a C26 murine colon carcinoma model. For this purpose tumor cells were injected subcutaneously into nude mice. After tumors had reached a size of approximately 50-100 mm^3, tumor-bearing mice were treated with mitoxantrone-loaded liposomes injecting a mitoxantrone dose of […] or 4 mg/kg body weight at days 0, 2 and 5. Unencapsulated mitoxantrone was included in these experiments. […] However, at this dose tumor growth was further reduced for AVE95-encapsulated mitoxantrone compared to free mitoxantrone (Fig. 9). This improved efficacy compared to free mitoxantrone was also observed at a mitoxantrone concentration of […].

SMILES	tumor growth compared to untreated control animals ([1]; 4 mg/kg at days 1, 3 and 6, first experiment)	lethality ([1]; at 8 mg/ml (so in the source), C26-tumor-bearing mice)	mean survival time ([1]; doxorubicin 4 mg/kg body weight at days 1, 3 and 6, first experiment) [days]	tumor growth at 8 mg/kg compared to 4 mg/kg ([1]; second experiment, 4 or 8 mg/kg body weight)	50% value (serum residence time of doxorubicin) [2] [min]	50% value (serum residence time of mitoxantrone) [3] [min]	inhibition of tumor growth [4]
COc1cccc2c1C(=O)c1c(O)c3c(c(O)c1C2=O)C[C@@](O)(C(=O)CO)C[C@@H]3O[C@H]1C[C@H](N)[C@H](O)[C@H](C)O1 [doxorubicin]	reduced tumor growth compared to untreated control animals	increased lethality	14	No differences in tumor growth	< 3	–	–
O=C1c2c(O)ccc(O)c2C(=O)c2c(NCCNCCO)ccc(NCCNCCO)c21 [mitoxantrone, Mitoxantrone]	–	–	–	–	–	< 3	strong inhibition of tumor growth

Source: patent EP1537858A1, “Drug delivery vehicles and uses thereof” (Vectron Therapeutics AG, priority 2003, dated 2005)
